This is an account of results in patent US7632413B2, “Process for treating a liquid medium using ultrasound” (Ashland Licensing and Intellectual Property LLC, priority 2002, dated 2009).

This assay concerns K562 cells. Nature of the assay: Annexin-V/PI assay of ultrasonically induced apoptosis in the presence of active oxygen scavengers. The format is cell-based, Human. To be noted: L-histidine 10 mM and/or mannitol 100 mM; for percentage of cells displaying phosphatidylserine externalization: 5 hours post-treatment, mean ± SEM, 4 experiments. Here is the method:
Human leukemia cell lines (K562, Nalm-6, KG1a, and HL-60) obtained from the American Type Culture Collection (ATCC, Rockville, Md., USA) were grown in RPMI-1640 (BioWhittaker, Walkersville, Md., USA) supplemented with 10% fetal calf serum (Gibco, Grand Island, N.Y., USA) and 1% L-glutamine (Gibco). Leukemic cells were harvested, resuspended in phosphate-buffered saline (PBS, pH=7.2, Gibco), and immediately used for the experiment. Heparinized venous blood was obtained from healthy volunteers and leukemic patients. Mononuclear cells were separated by Ficoll-Hypaque gradient density centrifugation (International Medical Products, Brussels, Belgium). The following describes the ultrasonic treatment on the cells. Human leukemia cell lines (K562, HL-60, KG1a, and Nalm-6), primary leukemic cells, and normal mononuclear cells were treated by ultrasound at a frequency of 1.8 MHz during various exposure times at an acoustical power of 7 mW/mL and irradiation (ON/OFF) cycles of 5.5 ms/3 ms. During apoptosis, phosphatidylserine residues flip from the inside to the outside of the plasma membrane and this change can be detected using Annexin-FITC, which binds to the PS residues. The following describes an Annexin V binding assay that was performed. Flow cytometric analysis of Annexin-V-fluorescein isothiocyanate (FITC)-and propidium iodide (PI)-stained cells was performed using the kit purchased from Biosource International (Camarillo, Calif., USA) as recommended by the manufacturer. Data were presented as dot plots showing the change in mean fluorescence intensity of Annexin-V-FITC/propidium iodide (not shown). The following procedure was performed to determine the effect of active oxygen scavengers on the induction of apoptosis by high-frequency ultrasound. K562 cells were incubated with L-histidine (10 mM) and/or mannitol (100 mM). Some cells were treated by high-frequency ultrasound and others were not. Cell apoptosis was detected by an Annexin-V/PI assay.

Consider `N[C@@H](Cc1c[nH]cn1)C(=O)O` [Histidine, L-histidine], for which the “percentage of cells displaying phosphatidylserine externalization” value runs as follows: (1 US treatment) 24 ± 8%; (3 US treatments) 36 ± 11%; (No US treatment) 15 ± 5%. Further, under “apoptosis induced by 3 successive ultrasound treatments”, the inhibition of apoptosis was found to be 43%.

By inhibition is commonly meant how much of the control response was suppressed. Regarding `OC[C@@H](O)[C@@H](O)[C@H](O)[C@H](O)CO` [Mannitol, mannitol], the “percentage of cells displaying phosphatidylserine externalization” value was determined as 21 ± 5% (1 US treatment), 30 ± 3% (3 US treatments) and 11 ± 4% (No US treatment). For the setting “Homo sapiens, K562, apoptosis induced by 3 successive ultrasound treatments”, the inhibition at 100000 µM amounted to 47%.
